Experimental data taken from patent US10273290B2, “Hydrocarbon double-stapled stabilized HIV-1 GP41 heptad repeat domain peptides” (DANA-FARBER CANCER INSTITUTE, INC., priority 2009, dated 2019).
“Also recorded” adds a separate entry of the source. Bridge positions count the residues as written; N and C are the ends. Square brackets hold non-standard residues; d marks the D form. Peptide text beside a SMILES is read from it. S5 = C=CCCC[C@](C)(N)C(=O)O; Nle = CCCC[C@H](N)C(=O)O

How the values were obtained:
[1] = Pharmacokinetics in mice, intravenous or oral gavage; format: in vivo, Male C57/BL6 mice
Experimental: Peptides were incubated (5-10 μg) with mouse plasma at 37° C. or injected (10, mg/kg) by tail vein into male C57/BL6 mice. […] For ex vivo serum stability studies, peptide half-lives were calculated by nonlinear regression analysis of exponential decay curves plotted using Prism software (Graphpad). In vivo plasma concentrations at the indicated time points were used to calculate plasma half-life, peak plasma levels, total plasma clearance, and apparent volume of distribution using noncompartmental analysis.
Blood samples withdrawn at 30 minutes by retro-orbital bleed were subjected to quantitation using LC/MS-based blood tests.

chymotrypsin = biological target: T1, chymotrypsin (Bos taurus, UniProt P00766); assay: Protease resistance assay, chymotrypsin (LC/MS); format: in vitro ADME; details: pH 7.4, 0.5 chymotrypsin, peptide 25 μM
T1 construct: purchased Sigma

Chymotrypsin, pH 7 = assay: Chymotrypsin, pH 7
From the text: Table printed on a drawing sheet, FIG. 17C
Title: Chymotrypsin, pH 7
First reader's note: The table also serves as the legend of the plot of fraction intact over time; the line and marker symbols are left out.

[2] = Circular dichroism, α-helical content; format: physicochemical; details: pH 2 versus pH 7
Method in brief: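 Far-UV CD spectra recorded at 20° C, 190-260 nm, 0.1 cm path, 10 accumulations. Percent α-helicity from mean residue ellipticity at 222 nm: 100×[θ]222/max[θ]222, with max[θ]222=−40,000×[1−(2.5/number of residues)]. Secondary-structure fractions also estimated by CDNN curve-fitting.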

Question: For `CCCC[C@H](NC(C)=O)C(=O)N[C@H](C(=O)N[C@@H](Cc1c[nH]c2ccccc12)C(=O)N[C@@]1(C)CCCC=CCCC[C@@](C)(C(=O)N[C@@H](CCC(=O)O)C(=O)N[C@H](C(=O)N[C@@H](CC(N)=O)C(=O)N[C@@H](CC(N)=O)C(=O)N[C@@H](Cc2ccc(O)cc2)C(=O)N[C@H](C(=O)N[C@@H](CO)C(=O)N[C@@H](CC(C)C)C(=O)N[C@H](C(=O)N[C@@H](Cc2c[nH]cn2)C(=O)N[C@@H](CO)C(=O)N[C@@H](CC(C)C)C(=O)N[C@H](C(=O)N[C@@H](CCC(=O)O)C(=O)N[C@@H](CCC(=O)O)C(=O)N[C@@H](CO)C(=O)N[C@@H](CCC(N)=O)C(=O)N[C@@H](CC(N)=O)C(=O)N[C@@H](CCC(N)=O)C(=O)N[C@@]2(C)CCCC=CCCC[C@@](C)(C(=O)N[C@@H](CCC(N)=O)C(=O)N[C@@H](CCC(=O)O)C(=O)N[C@@H](CC(C)C)C(=O)N[C@@H](CC(C)C)C(=O)N[C@@H](CCC(=O)O)C(N)=O)NC(=O)[C@H](CC(N)=O)NC(=O)[C@H](CCCCN)NC(=O)[C@H](CCC(=O)O)NC2=O)[C@@H](C)CC)[C@@H](C)CC)[C@@H](C)O)[C@@H](C)CC)NC(=O)[C@H](CC(=O)O)NC(=O)[C@H](Cc2c[nH]c3ccccc23)NC(=O)[C@H](CCC(=O)O)NC1=O)[C@@H](C)O` [SAH-gp41(626-662)(A, F)] (Ac-[Nle]TW[S5]EWD[S5]EINNYTSLIHSLIEESQNQ[S5]EKN[S5]QELLE-NH2; staple 4-8, 28-32; N-terminus and C-terminus assumed), which “level measured in the blood, fold of unmodified peptide” value ([1]; 10 mg/kg, blood samples at 30 minutes) is on record?
Answer: Its value is “more than 6 fold”.

Question: And the “in vivo stability, in words” value ([1]; intravenous, 10 mg/kg, plasma concentrations of intact peptide)?
Answer: Its value is “marked in vivo stability”.

Question: And the “fold decrease in clearance” value ([1]; noncompartmental analysis)?
Answer: The value was “about 10 fold”.

Question: What about the “fold enhancement in area under the curve (AUC)” value ([1]; noncompartmental analysis, serial blood draws) of the same compound?
Answer: The value was “about 10 fold”.

Question: What about the “intact peptide in blood/plasma after oral administration” value ([1]; oral gavage, 30 minutes after administration) of the same compound?
Answer: Its value is “measurable and dose-responsive levels; also recorded: measurable and dose-responsive plasma concentrations”.

Question: And the Half-Life (chymotrypsin)?
Answer: Its Half-Life is 5.02 h.

Question: And the “Half-Life” value (Chymotrypsin, pH 7)?
Answer: The value was 5.58 h.

Question: What about the “α-helicity, in words” value [2] of the same compound?
Answer: The value was “even greater α-helicity at pH 2 than at pH 7”.
